Source: patent publication US9770423B2, “Modulation sAPP, sAAPα and BDNF levels in individuals diagnosed with FXS and ASD” (Indiana University Research and Technology Corp., priority 2012, dated 2017)
“Also recorded” adds a separate entry of the source.

Experiment: safety and adverse effects in the 12-week trial in youth with autistic disorder
Format: in vivo, human
Conditions: nine youth with autistic disorder receiving acamprosate
Description: A 12-week single-blind, placebo-controlled trial of the effect of acamprosate in the treatment of 12 youths with autistic disorder aged 5 to 17 years was carried out. In order to pilot test use of acamprosate in youth with autism targeting core social impairment, was conducted. All subjects and their family members were blinded to treatment status. All subjects participated in a 2 week placebo-lead-in phase prior to 10 weeks of treatment with acamprosate. For this project, enteric coated commercially available 333 mg acamprosate pills were over-encapsulated and identical matching placebo manufactured for the project. Placebo-responders, defined by a Clinical Global Impressions Improvement scale (CGI-I) score of 1 “very much improved” or 2 “much improved” (ratings anchored to core social deficits) at week 2 were asked to exit the study. During active treatment with acamprosate, dosing was increased in 333 mg increments per week over the first six weeks of active treatment to a maximum dose of 1,332 mg/day (weight<5 60 kg) or 1,998 mg/day (weight>60 kg). During the final four weeks of active drug treatment, subjects were maintained on a stable highest tolerated (optimal) dose. The primary outcome measure was the clinician-rated CGI-I anchored to symptoms of social impairment. […]

**Q.** With `CC(=O)NCCCS(=O)(=O)O.[Ca]` [acamprosate, Calcium Acetylhomotaurine] as the compound, how does the overall tolerability read?
**A.** Its overall tolerability is “well tolerated with no adverse effects leading to drug discontinuation or laboratory/vital sign abnormalities noted; also recorded: well tolerated with no adverse effects leading to drug discontinuation and no vital sign or safety laboratory changes noted”.
